Where two headings read alike, the source gives them in different places.
Target: T1, G protein-coupled receptor 119 (GPR-119) (Mesocricetus auratus, UniProt A0A1U8CD06)
T1 construct: hamster-derived β-cells containing G protein-coupled receptor 119 (GPR-119), HIT-T15 cells; host or cells: HIT-T15 (hamster pancreatic β-cells)
T1 sequence (A0A1U8CD06 1-334): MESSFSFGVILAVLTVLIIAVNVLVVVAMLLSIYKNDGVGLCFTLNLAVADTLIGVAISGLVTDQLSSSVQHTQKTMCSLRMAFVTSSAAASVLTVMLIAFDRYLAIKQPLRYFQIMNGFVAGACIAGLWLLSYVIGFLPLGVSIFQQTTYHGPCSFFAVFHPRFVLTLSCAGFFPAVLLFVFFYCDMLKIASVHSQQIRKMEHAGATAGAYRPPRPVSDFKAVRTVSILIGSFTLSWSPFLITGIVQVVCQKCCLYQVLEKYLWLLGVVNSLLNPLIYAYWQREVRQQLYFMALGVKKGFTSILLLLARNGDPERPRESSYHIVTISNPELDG
Experiment: Evaluation of cAMP activity in HIT-T15 cells (HTRF cAMP dynamic kit)
Type: cell-based, hamster
Conditions: cAMP activation
How it was run: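 HIT-T15 cells, 60,000/well, treated next day with compound at six concentrations ([…]) for 1 h at 37° C. Lysate cAMP quantified by HTRF competitive immunoassay (D2-cAMP, cryptate anti-cAMP); activity taken as change in FRET signal relative to DMSO.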

[1] = 1 h at 37° C., six concentrations, read-out: EC50

| EC50 [1] [nM] | EC50 (read-out: EC50 value) [nM] | SMILES |
| --- | --- | --- |
| 1500 | – | CC(C)c1noc(N2CCC(COc3ccc(C4=CCC(C(=O)NCCC(=O)O)CC4)cc3F)CC2)n1 (stereo not drawn) [Example 111, 3-(4-(3-fluoro-4-((1-(3-isopropyl-1,2,4-oxadiazol-5-yl)piperidin-4-yl)methoxy)phenyl)cyclohex-3-enecarboxamido)propanoic acid] |
| 14 | ≤ 50 | CC(C)(C)OC(=O)N1CCC(COc2ccc(C3=CCC(C(=O)N4CCC[C@H]4C#N)CC3)cc2F)CC1 (stereo partly drawn) [Example 114, tert-butyl 4-((4-(4-((S)-2-cyanopyrrolidine-1-carbonyl)cyclohex-1-enyl)-2-fluorophenoxy)methyl)piperidine-1-carboxylate] |
| 80 | – | CC(C)c1noc(N2CCC(COc3ccc(C4=CCC(C(=O)NCCO)CC4)cc3F)CC2)n1 (stereo not drawn) [Example 120, 4-(3-fluoro-4-((1-(3-isopropyl-1,2,4-oxadiazol-5-yl)piperidin-4-yl)methoxy)phenyl)-N-(2-hydroxyethyl)cyclohex-3-enecarboxamide] |
| 70 | – | C[C@H](O)CNC(=O)C1CC=C(c2ccc(OCC3CCN(C(=O)OC(C)(C)C)CC3)cc2F)CC1 (stereo partly drawn) [Example 125, tert-butyl 4-((3-fluoro-4-(4-((S)-2-hydroxypropylcarbamoyl)cyclohex-1-enyl)phenoxy)methyl)piperidine-1-carboxylate] |
| 130 | – | C[C@@H](O)CNC(=O)C1CC=C(c2ccc(OCC3CCN(C(=O)OC(C)(C)C)CC3)cc2F)CC1 (stereo partly drawn) [Example 126, tert-butyl 4-((3-fluoro-4-(4-((R)-2-hydroxypropylcarbamoyl)cyclohex-1-enyl)phenoxy)methyl)piperidine-1-carboxylate] |
| 83 | – | CCc1cnc(N2CCC(COc3ccc(C4=CCC(C(=O)N[C@@H](C)CO)CC4)cc3)CC2)nc1 (stereo partly drawn) [Example 127, 4-(4-((1-(5-ethylpyrimidin-2-yl)piperidin-4-yl)methoxy)phenyl)-N-((S)-1-hydroxypropan-2-yl)cyclohex-3-enecarboxamide] |
| 200 | – | CCc1cnc(N2CCC(COc3ccc(C4=CCC(C(=O)NC[C@H](O)CO)CC4)cc3)CC2)nc1 (stereo partly drawn) [Example 128, N-((S)-2,3-dihydroxypropyl)-4-(4-((1-(5-ethylpyrimidin-2-yl)piperidin-4-yl)methoxy)phenyl)cyclohex-3-enecarboxamide] |
| 140 | – | C[C@H](CO)NC(=O)C1CC=C(c2ccc(OCC3CCN(C(=O)OC(C)(C)C)CC3)cc2F)CC1 (stereo partly drawn) [Example 129, tert-butyl 4-((3-fluoro-4-(4-((R)-1-hydroxypropan-2-ylcarbamoyl)cyclohex-1-enyl)phenoxy)methyl)piperidine-1-carboxylate] |
| 90 | – | C[C@@H](CO)NC(=O)C1CC=C(c2ccc(OCC3CCN(C(=O)OC(C)(C)C)CC3)cc2F)CC1 (stereo partly drawn) [Example 130, tert-butyl 4-((3-fluoro-4-(4-((S)-1-hydroxypropan-2-ylcarbamoyl)cyclohex-1-enyl)phenoxy)methyl)piperidine-1-carboxylate] |
| 150 | – | CC(C)(C)OC(=O)N1CCC(COc2ccc(C3=CCC(C(=O)NC[C@@H](O)CO)CC3)c(F)c2)CC1 (stereo partly drawn) [Example 131, tert-butyl 4-((4-(4-((R)-2,3-dihydroxypropylcarbamoyl)cyclohex-1-enyl)-3-fluorophenoxy)methyl)piperidine-1-carboxylate] |
| 210 | – | CC(C)(C)OC(=O)N1CCC(COc2ccc(C3=CCC(C(=O)NC[C@H](O)CO)CC3)c(F)c2)CC1 (stereo partly drawn) [Example 132, tert-butyl 4-((4-(4-((S)-2,3-dihydroxypropylcarbamoyl)cyclohex-1-enyl)-3-fluorophenoxy)methyl)piperidine-1-carboxylate] |
| 350 | – | CC(C)c1noc(N2CCC(COc3ccc(C4=CCC(C(=O)NCCC(=O)N5CCC[C@H]5C(N)=O)CC4)cc3F)CC2)n1 (stereo partly drawn) [Example 134, (2S)-1-(3-(4-(3-fluoro-4-((1-(3-isopropyl-1,2,4-oxadiazol-5-yl)piperidin-4-yl)methoxy)phenyl)cyclohex-3-enecarboxamido)propanoyl)pyrrolidine-2-carboxamide] |
| 62 | – | CCc1cnc(N2CCC(COc3ccc(C4=CCC(C(=O)NC[C@H](C)O)CC4)cc3)CC2)nc1 (stereo partly drawn) [Example 136, 4-(4-((1-(5-ethylpyrimidin-2-yl)piperidin-4-yl)methoxy)phenyl)-N-((S)-2-hydroxypropyl)cyclohex-3-enecarboxamide] |
| 60 | – | CC(C)(C)OC(=O)N1CCC(COc2ccc(C3=CCC(C(=O)NC4CC4)CC3)c(F)c2)CC1 (stereo not drawn) [Example 137, tert-butyl 4-((4-(4-(cyclopropylcarbamoyl)cyclohex-1-enyl)-3-fluorophenoxy)methyl)piperidine-1-carboxylate] |
| 100 | – | CC(C)(C)OC(=O)N1CCC(COc2ccc(C3=CCC(C(=O)NCCF)CC3)c(F)c2)CC1 (stereo not drawn) [Example 138, tert-butyl 4-((3-fluoro-4-(4-(2-fluoroethylcarbamoyl)cyclohex-1-enyl)phenoxy)methyl)piperidine-1-carboxylate] |
| 120 | – | CC(C)c1noc(N2CCC(COc3ccc(C4=CCC(C(=O)NCCC(=O)N5CCC[C@H]5C#N)CC4)cc3F)CC2)n1 (stereo partly drawn) [Example 140, N-(3-((S)-2-cyanopyrrolidin-1-yl)-3-oxopropyl)-4-(3-fluoro-4-((1-(3-isopropyl-1,2,4-oxadiazol-5-yl)piperidin-4-yl)methoxy)phenyl)cyclohex-3-enecarboxamide] |

Continued, molecule first:

| SMILES | EC50 [1] [nM] | EC50 (read-out: EC50 value) [nM] |
| --- | --- | --- |
| CC(C)c1noc(N2CCC(COc3ccc(C4=CCC(C(=O)NCC(=O)N5CCOCC5)CC4)cc3F)CC2)n1 (stereo not drawn) [Example 112, 4-(3-fluoro-4-((1-(3-isopropyl-1,2,4-oxadiazol-5-yl)piperidin-4-yl)methoxy)phenyl)-N-(2-morpholino-2-oxoethyl)cyclohex-3-enecarboxamide] | 70 | – |
| CC(C)c1noc(N2CCC(COc3ccc(C4=CCC(C(=O)NCCC(=O)N5CCOCC5)CC4)cc3F)CC2)n1 (stereo not drawn) [Example 113, 4-(3-fluoro-4-((1-(3-isopropyl-1,2,4-oxadiazol-5-yl)piperidin-4-yl)methoxy)phenyl)-N-(3-morpholino-3-oxopropyl)cyclohex-3-enecarboxamide] | 68 | – |
| CC(C)c1noc(N2CCC(COc3ccc(C4=CCC(C(=O)N5CCC[C@H]5C#N)CC4)cc3F)CC2)n1 (stereo partly drawn) [Example 115, (2S)-1-(4-(3-fluoro-4-((1-(3-isopropyl-1,2,4-oxadiazol-5-yl)piperidin-4-yl)methoxy)phenyl)cyclohex-3-enecarbonyl)pyrrolidine-2-carbonitrile] | 15 | ≤ 50 |
| CC(C)c1noc(N2CCC(COc3ccc(C4=CCC(C(=O)N5CCC[C@@H]5C(N)=O)CC4)cc3F)CC2)n1 (stereo partly drawn) [Example 116, (2R)-1-(4-(3-fluoro-4-((1-(3-isopropyl-1,2,4-oxadiazol-5-yl)piperidin-4-yl)methoxy)phenyl)cyclohex-3-enecarbonyl)pyrrolidine-2-carboxamide] | 28 | ≤ 50 |
| CC(C)c1noc(N2CCC(COc3ccc(C4=CCC(C(=O)N5CCC[C@@H]5C#N)CC4)cc3F)CC2)n1 (stereo partly drawn) [Example 117, (2R)-1-(4-(3-fluoro-4-((1-(3-isopropyl-1,2,4-oxadiazol-5-yl)piperidin-4-yl)methoxy)phenyl)cyclohex-3-enecarbonyl)pyrrolidine-2-carbonitrile] | 11 | ≤ 50 |
| CC(C)c1noc(N2CCC(COc3ccc(C4=CCC(C(=O)NCC(=O)N5CCC[C@@H]5C(N)=O)CC4)cc3F)CC2)n1 (stereo partly drawn) [Example 121, (2R)-1-(2-(4-(3-fluoro-4-((1-(3-isopropyl-1,2,4-oxadiazol-5-yl)piperidin-4-yl)methoxy)phenyl)cyclohex-3-enecarboxamido)acetyl)pyrrolidine-2-carboxamide] | 500 | – |
| CC(C)c1noc(N2CCC(COc3ccc(C4=CCC(C(=O)NCC(=O)N5CCC[C@@H]5C#N)CC4)cc3F)CC2)n1 (stereo partly drawn) [Example 122, N-(2-((R)-2-cyanopyrrolidin-1-yl)-2-oxoethyl)-4-(3-fluoro-4-((1-(3-isopropyl-1,2,4-oxadiazol-5-yl)piperidin-4-yl)methoxy)phenyl)cyclohex-3-enecarboxamide] | 130 | – |
| CCc1cnc(N2CCC(COc3ccc(C4=CCC(C(=O)N5CCN(C6CC6)CC5)CC4)cc3)CC2)nc1 (stereo not drawn) [Example 123, (4-cyclopropylpiperazin-1-yl)(4-(4-((1-(5-ethylpyrimidin-2-yl)piperidin-4-yl)methoxy)phenyl)cyclohex-3-enyl)methanone] | 35 | ≤ 50 |
| CCc1cnc(N2CCC(COc3ccc(C4=CCC(C(=O)N5CCN(CC6CC6)CC5)CC4)cc3)CC2)nc1 (stereo not drawn) [Example 124, (4-(cyclopropylmethyl)piperazin-1-yl)(4-(4-((1-(5-ethylpyrimidin-2-yl)piperidin-4-yl)methoxy)phenyl)cyclohex-3-enyl)methanone] | 100 | – |
| CC(C)c1noc(N2CCC(COc3ccc(C4=CCC(C(=O)NCC(=O)N5CCC[C@H]5C(N)=O)CC4)cc3F)CC2)n1 (stereo partly drawn) [Example 133, (2S)-1-(2-(4-(3-fluoro-4-((1-(3-isopropyl-1,2,4-oxadiazol-5-yl)piperidin-4-yl)methoxy)phenyl)cyclohex-3-enecarboxamido)acetyl)pyrrolidine-2-carboxamide] | 400 | – |
| CCc1cnc(N2CCC(COc3ccc(C4=CCC(C(=O)N5CC[C@H](O)C5)CC4)cc3)CC2)nc1 (stereo partly drawn) [Example 135, (4-(4-((1-(5-ethylpyrimidin-2-yl)piperidin-4-yl)methoxy)phenyl)cyclohex-3-enyl)((S)-3-hydroxypyrrolidin-1-yl)methanone] | 30 | ≤ 50 |

Source: patent US9758527B2, “Cyclohexene derivative, preparation method therefor, and pharmaceutical composition for preventing or treating metabolic diseases, containing same as active ingredient” (HYUNDAI PHARM CO., LTD., priority 2014, dated 2017)
